Measurements: US12492173B2, “Herbicidal substituted N-tetrazolyl aryl carboxamides” (Bayer Aktiengesellschaft, priority 2019, dated 2025)

What was measured:
Type in all cases: in vivo
Cyperus esculentus = assay: Pre-emergence herbicidal action, CYPES; design: key: % activity: 100 = plants have died, 0 = like control plants; settings: comparative experiment
Text: (§1) 1. Pre-Emergence Herbicidal Action Against Harmful Plants Seeds of monocotyledonous and dicotyledonous weed plants and crop plants are laid out in sandy loam soil in wood-fiber pots and covered with soil. The compounds of the invention, formulated in the form of wettable powders (WP) or as emulsion concentrates (EC), are then applied to the surface of the covering soil in the form of an aqueous suspension or emulsion at a water application rate equating to 600 to 800 l/ha, with addition of 0.2% wetting agent. After the treatment, the pots are placed in a greenhouse and kept under good growth conditions for the trial plants. The damage to the test plants is scored visually after a test period of 3 weeks by comparison with untreated controls (herbicidal activity in percent (%): 100% activity=the plants have died, 0% activity=like control plants). […] The tables below illustrate, in an exemplary manner, the […] herbicidal action of the compounds according to the invention, the herbicidal activity being stated in percent. [table] In the experiments that follow, herbicidal action of numerous inventive compounds and the known compounds that are structurally closest from D1 (WO 2012/028579 A1) and D2 (WO 2018/202535 A1) were compared under the above-specified conditions by the pre-emergence and post-emergence method. The example numbers given in the tables relate to the compounds disclosed in the respective documents. In addition to the compounds disclosed in D1 and D2, the following compounds V-1 to V-14 that are encompassed by D1 or D2 but are not compounds specified therein were used in the comparative experiments: • V-1: 2-(methylsulfanyl)-3-(methylsulfinyl)-N-(1-methyl-1H-tetrazol-5-yl)-4-(trifluoromethyl)benzamide • V-2: 2-(methylsulfanyl)-3-(methylsulfonyl)-N-(1-methyl-1H-tetrazol-5-yl)-4-(trifluoromethyl)benzamide • V-3: 2,3-bis(ethylsulfanyl)-N-(1-methyl-1H-tetrazol-5-yl)-4-(trifluoromethyl)benzamide • V-4: 2-chloro-3-(ethylsulfanyl)-N-(1-methyl-1H-tetrazol-5-yl)-4-(trifluoromethyl)benzamide • V-5: 2-chloro-4-iodo-3-(methylsulfanyl)-N-(1-methyl-1H-tetrazol-5-yl)benzamide • V-6: 2-chloro-4-iodo-3-(methylsulfinyl)-N-(1-methyl-1H-tetrazol-5-yl)benzamide • V-7: 2-chloro-4-iodo-3-(methylsulfonyl)-N-(1-methyl-1H-tetrazol-5-yl)benzamide • V-8: 2-bromo-3-(methylsulfanyl)-N-(1-methyl-1H-tetrazol-5-yl)-4-(trifluoromethyl)benzamide • V-9: 2-bromo-3-(methylsulfinyl)-N-(1-methyl-1H-tetrazol-5-yl)-4-(trifluoromethyl)benzamide • V-10: 2-bromo-3-(methylsulfonyl)-N-(1-methyl-1H-tetrazol-5-yl)-4-(trifluoromethyl)benzamide • V-11: 2-bromo-3-(ethylsulfanyl)-N-(1-methyl-1H-tetrazol-5-yl)-4-(trifluoromethyl)benzamide • V-12: 2-bromo-3-(ethylsulfinyl)-N-(1-methyl-1H-tetrazol-5-yl)-4-(trifluoromethyl)benzamide • V-13: 2-bromo-3-(ethylsulfonyl)-N-(1-methyl-1-1H-tetrazol-5-yl)-4-(trifluoromethyl)benzamide • V-14: 2-cyclopropyl-3-(ethylsulfanyl)-N-(1-methyl-1H-tetrazol-5-yl)-4-(trifluoromethyl)benzamide Herbicidal Pre-Emergence Action: […]

Echinochloa crus-galli = assay: Pre-emergence herbicidal action, ECHCG; settings: Echinochloa crus-galli, 504 h, comparative experiment, read-out: Herbicidal action against ECHCG
Summary of the method: (§2)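 Seeds were covered with sandy loam soil, then received a pre-emergence surface spray of the WP- or EC-formulated compound. After 3 weeks under good greenhouse growth conditions, damage was scored visually in percent.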

Polygonum convolvulus [1] = assay: Pre-emergence herbicidal action, POLCO; settings: comparative experiment, 20 g of a.i./ha
Text: as §1

Polygonum convolvulus [2] = assay: Post-emergence herbicidal action, POLCO; settings: comparative experiment, post-emergence, 5 g of a.i./ha
Protocol: (§3) [table] 2. Post-Emergence Herbicidal Action Against Harmful Plants Seeds of monocotyledonous and dicotyledonous weed and crop plants are laid out in sandy loam soil in wood-fiber pots, covered with soil and cultivated in a greenhouse under good growth conditions. 2 to 3 weeks after sowing, the test plants are treated at the one-leaf stage. The compounds of the invention, formulated in the form of wettable powders (WP) or as emulsion concentrates (EC), are then sprayed onto the green parts of the plants in the form of an aqueous suspension or emulsion at a water application rate equating to 600 to 800 l/ha, with addition of 0.2% wetting agent. After the test plants have been left to stand in the greenhouse under optimal growth conditions for about 3 weeks, the action of the preparations is assessed visually in comparison to untreated controls (herbicidal action in percent (%): 100% activity=the plants have died, 0% activity=like control plants). […] The tables below illustrate, in an exemplary manner, the post-emergence herbicidal action of the compounds according to the invention, the herbicidal activity being stated in percent. In the experiments that follow, herbicidal action of numerous inventive compounds and the known compounds that are structurally closest from D1 (WO 2012/028579 A1) and D2 (WO 2018/202535 A1) were compared under the above-specified conditions by the pre-emergence and post-emergence method. The example numbers given in the tables relate to the compounds disclosed in the respective documents. In addition to the compounds disclosed in D1 and D2, the following compounds V-1 to V-14 that are encompassed by D1 or D2 but are not compounds specified therein were used in the comparative experiments: • V-1: 2-(methylsulfanyl)-3-(methylsulfinyl)-N-(1-methyl-1H-tetrazol-5-yl)-4-(trifluoromethyl)benzamide • V-2: 2-(methylsulfanyl)-3-(methylsulfonyl)-N-(1-methyl-1H-tetrazol-5-yl)-4-(trifluoromethyl)benzamide • V-3: 2,3-bis(ethylsulfanyl)-N-(1-methyl-1H-tetrazol-5-yl)-4-(trifluoromethyl)benzamide • V-4: 2-chloro-3-(ethylsulfanyl)-N-(1-methyl-1H-tetrazol-5-yl)-4-(trifluoromethyl)benzamide • V-5: 2-chloro-4-iodo-3-(methylsulfanyl)-N-(1-methyl-1H-tetrazol-5-yl)benzamide • V-6: 2-chloro-4-iodo-3-(methylsulfinyl)-N-(1-methyl-1H-tetrazol-5-yl)benzamide • V-7: 2-chloro-4-iodo-3-(methylsulfonyl)-N-(1-methyl-1H-tetrazol-5-yl)benzamide • V-8: 2-bromo-3-(methylsulfanyl)-N-(1-methyl-1H-tetrazol-5-yl)-4-(trifluoromethyl)benzamide • V-9: 2-bromo-3-(methylsulfinyl)-N-(1-methyl-1H-tetrazol-5-yl)-4-(trifluoromethyl)benzamide • V-10: 2-bromo-3-(methylsulfonyl)-N-(1-methyl-1H-tetrazol-5-yl)-4-(trifluoromethyl)benzamide • V-11: 2-bromo-3-(ethylsulfanyl)-N-(1-methyl-1H-tetrazol-5-yl)-4-(trifluoromethyl)benzamide • V-12: 2-bromo-3-(ethylsulfinyl)-N-(1-methyl-1H-tetrazol-5-yl)-4-(trifluoromethyl)benzamide • V-13: 2-bromo-3-(ethylsulfonyl)-N-(1-methyl-1-1H-tetrazol-5-yl)-4-(trifluoromethyl)benzamide • V-14: 2-cyclopropyl-3-(ethylsulfanyl)-N-(1-methyl-1H-tetrazol-5-yl)-4-(trifluoromethyl)benzamide Herbicidal Pre-Emergence Action: […]

Abutilon theophrasti [3] = assay: Pre-emergence herbicidal action, ABUTH; design: key to Herbicidal action against ABUTH: % activity: 100 = plants have died, 0 = like control plants; settings: comparative experiment, 80 g of a.i./ha
Summary of the method: as §2

Alopecurus myosuroides = assay: Post-emergence herbicidal action, ALOMY; design: key: % herbicidal action vs untreated; 100 = plants died, 0 = like control; settings: comparative experiment, post-emergence, 20 g of a.i./ha
Protocol: as §3

Abutilon theophrasti [4] = assay: Post-emergence herbicidal action, ABUTH; design: key: % herbicidal action vs untreated; 100 = plants died, 0 = like control; settings: comparative experiment, post-emergence, 20 g of a.i./ha
Summary of the method: (§4)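 Visual % damage versus untreated plants, scored about 3 weeks post-spray (100% = dead, 0% = like control). Greenhouse plants in sandy loam were treated at one-leaf stage with WP/EC formulations in water at 600 to 800 l/ha plus 0.2% wetting agent.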

Viola tricolor [5] = assay: Post-emergence herbicidal action, VIOTR; design: key: % herbicidal action vs untreated; 100 = plants died, 0 = like control; settings: comparative experiment, post-emergence, 20 g of a.i./ha
Summary of the method: as §4

Setaria viridis [6] = assay: Post-emergence herbicidal action, SETVI; design: key: % herbicidal action vs untreated; 100 = plants died, 0 = like control; settings: comparative experiment, post-emergence, 20 g of a.i./ha
Summary of the method: as §4

Veronica persica [7] = assay: Post-emergence herbicidal action, VERPE; design: key: % herbicidal action vs untreated; 100 = plants died, 0 = like control; settings: comparative experiment, post-emergence, 20 g of a.i./ha
Summary of the method: as §4

Viola tricolor [8] = assay: Pre-emergence herbicidal action, VIOTR; design: key to Herbicidal action against VIOTR: % activity: 100 = plants have died, 0 = like control plants; settings: comparative experiment, 80 g of a.i./ha
Summary of the method: as §2

Avena fatua = assay: Post-emergence herbicidal action, AVEFA; design: key: % herbicidal action vs untreated; 100 = plants died, 0 = like control; settings: comparative experiment, post-emergence, 20 g of a.i./ha
Protocol: as §3

Veronica persica [9] = assay: Pre-emergence herbicidal action, VERPE; design: key to Herbicidal action against VERPE: % activity: 100 = plants have died, 0 = like control plants; settings: comparative experiment, 80 g of a.i./ha
Summary of the method: as §2

Amaranthus retroflexus = assay: Pre-emergence herbicidal action, AMARE; design: key to Herbicidal action against AMARE: % activity: 100 = plants have died, 0 = like control plants; settings: comparative experiment, 80 g of a.i./ha
Summary of the method: as §2

Stellaria media = assay: Post-emergence herbicidal action, STEME; design: key: % herbicidal action vs untreated; 100 = plants died, 0 = like control; settings: comparative experiment, post-emergence, 20 g of a.i./ha
Summary of the method: as §4

Setaria viridis [10] = assay: Pre-emergence herbicidal action, SETVI; design: key to Herbicidal action against SETVI: % activity: 100 = plants have died, 0 = like control plants; settings: comparative experiment, 80 g of a.i./ha
Text: as §1

Row | SMILES | Herbicidal action against CYPES (Cyperus esculentus; 20 g of a.i./ha) | pest or weed control at 20 g/ha (Echinochloa crus-galli; 20 g of a.i./ha) [%] | Herbicidal action against POLCO (Polygonum convolvulus [1]) | Herbicidal action against POLCO (Polygonum convolvulus [2]) | Herbicidal action against ABUTH (Abutilon theophrasti [3]) | Herbicidal action against ALOMY (Alopecurus myosuroides) | Herbicidal action against ABUTH (Abutilon theophrasti [4]) | Herbicidal action against CYPES (Cyperus esculentus; 80 g of a.i./ha) | Herbicidal action against VIOTR (Viola tricolor [5]) | pest or weed control at 80 g/ha (Echinochloa crus-galli; 80 g of a.i./ha) [%] | Herbicidal action against SETVI (Setaria viridis [6]) | Herbicidal action against VERPE (Veronica persica [7]) | Herbicidal action against VIOTR (Viola tricolor [8]) | Herbicidal action against AVEFA (Avena fatua) | Herbicidal action against VERPE (Veronica persica [9]) | Herbicidal action against AMARE (Amaranthus retroflexus) | Herbicidal action against STEME (Stellaria media) | Herbicidal action against SETVI (Setaria viridis [10])
1 | CSc1c(C(=O)Nc2nnnn2C)ccc(C(F)(F)F)c1S(C)(=O)=O [Example V-2, 2-(methylsulfanyl)-3-(methylsulfonyl)-N-(1-methyl-1H-tetrazol-5-yl)-4-(trifluoromethyl)benzamide, reference compound] | 0 | 50 | 0 | 0 |  |  |  |  |  |  |  |  |  |  |  |  |  | 
2 | CSc1c(C(F)(F)F)ccc(C(=O)Nc2nnnn2C)c1Br [Example V-8, 2-bromo-3-(methylsulfanyl)-N-(1-methyl-1H-tetrazol-5-yl)-4-(trifluoromethyl)benzamide, reference compound] | 0 |  |  |  |  |  |  |  |  |  |  |  |  |  |  |  |  | 
3 | CCSc1c(C(F)(F)F)ccc(C(=O)Nc2nnnn2C)c1Br [Example V-11, 2-bromo-3-(ethylsulfanyl)-N-(1-methyl-1H-tetrazol-5-yl)-4-(trifluoromethyl)benzamide, reference compound] |  |  |  |  | 0 | 0 | 0 | 0 | 20 | 0 | 0 | 40 | 80 | 0 | 10 | 0 | 0 | 0
